# Experimental data published in patent US8507550B2, “Treatment for altitudinal hypoxia” (AesRx LLC, priority 2010, dated 2013).
# Key:
# [1] = system: sickle cell disease mouse model; conditions: Abdulmalik 2004; cited from earlier work
# [2] = system: rats; conditions: females; cited from earlier work
# [3] = system: SCD Hb; conditions: sickle cell disease mouse model; Abdulmalik 2004; cited from earlier work
# [4] = system: human subject; experiment: hypoxia induced by moderate exercise at elevated altitude in a human subject; assay type: in vivo; conditions: 3,000 meters altitude, at rest 3 hours and after one hour bike; dosage giving P50 of 18 mm Hg; day 2 (treated) vs day 1
# Experimental: A 90 kg person in good health is transported from low elevation (<100 meters above sea level) to an altitude of 3,000 meters above sea level and kept at rest there for 3 hours. At that point, the subject is tested for respiration rate, heart rate and extremity O2. The subject is then put on a stationary exercise bike and allowed to ride the bike at a cadence of 40 rpm for one hour. The subject is again tested for respiration rate, heart rate and extremity O2. Then the subject is transported back to low elevation. […] The subject is kept at rest there for 3 hours, then tested for respiration rate, heart rate and extremity O2. The subject is then put on a stationary exercise bike and allowed to ride the bike at a cadence of 40 rpm for one hour. The subject is again tested for respiration rate, heart rate and extremity O2. The data from the two days are then compared.
smiles,measurement,setting,value
"O=Cc1ccc(CO)o1 [5-HMF, 5-hydroxymethyl-2-furfural]",in vivo protection against the lethal effects of hypoxia,[1],provides in vivo protection against the lethal effects of hypoxia
same,acute oral LD50,[2],2500 to 5000 mg/kg
same,P50 of SCD Hb,[3],lower P50 (left shift)
same,"respiration rate, heart rate and extremity O2",[4],closer to normal on day 2 than on day 1
